From US9278958B2, “Anti-cancer compounds” (KATHOLIEKE UNIVERSITEIT LEUVEN, priority 2012, dated 2016)
Where two headings read alike, the source gives them in different places. Blank lines part the entries; values can stand above or below the compound they belong to.

What was measured:
[1] = test system: BPH-1 (UZ); assay: Cytostatic assay, BPH-1 (UZ); assay type: cell-based; conditions: Homo sapiens, Table 4
Summary of the method: (§1)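 Proliferation under compound exposure was measured by counting cells (Coulter) after 48 h to 96 h at 37° C; the period varied with the line. Starting density was 5-7.5×10^4 cells per well in a humidified CO2 atmosphere.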

[2] = test system: protein synthesis in Raji cells; assay: Antimetabolic activity assay, [4,5-3H]leucine incorporation (protein synthesis), Raji; assay type: cell-based; conditions: Homo sapiens, incorporation into TCA-insoluble material
Description: [The procedure below names another cell line; the source lists this cell line under the same test.] (§2) Radiolabeled precursors of DNA synthesis ([^3H-methyl]dThd), RNA synthesis ([5-^3H]Urd), and protein synthesis ([4,5-^3H]leu) were added to 10^5 CEM cell cultures in the 200 μl-wells of a microtiter plate at 1 μCi for each precursor in the presence of varying concentrations of the test compounds (5-fold dilution series). The cells were allowed to proliferate for 20 hrs at 37° C. in a humidified, CO2-controlled atmosphere. At the end of the incubation period, the contents of the wells were brought onto 25-mm glass fiber filters and further processed for measurement of acid-insoluble radioactivity.

[3] = test system: RNA synthesis in Raji cells; assay: Antimetabolic activity assay, [5-3H]uridine incorporation (RNA synthesis), Raji; assay type: cell-based; conditions: Homo sapiens, incorporation into TCA-insoluble material
Description: [The procedure below names another cell line; the source lists this cell line under the same test.] as §2

[4] = test system: U87 CD4+/CXCR4+/CCR5+ glioma cells; assay: Cytostatic assay, U87 CD4+/CXCR4+/CCR5+; assay type: cell-based; conditions: Homo sapiens, Glioma cell; Table 3
Description: (§3) To each well of a 96-well microtiter plate were added 5-7.5×10^4 cells and a given amount of the test compound. The cells were allowed to proliferate for 48 h to 96 h (depending on the nature of the cell line) at 37° C. in a humidified CO2-controlled atmosphere. At the end of the incubation period, the cells were counted in a Coulter Counter (Coulter Electronics Ltd, Harpenden Herts, United Kingdom).

[5] = test system: OST TK- osteosarcoma cells; assay: Cytostatic assay, OST TK-; assay type: cell-based; conditions: Homo sapiens; Table 3
Summary of the method: as §1

[6] = test system: HUT-78 cells; assay: Cytostatic assay, HUT-78; assay type: cell-based; conditions: Homo sapiens, HuT78; Table 2
Summary of the method: as §1

[7] = test system: 293T embryonic kidney cells; assay: Cytostatic assay, 293T; assay type: cell-based; conditions: Homo sapiens, HEK-293T; Table 3
Summary of the method: as §1

[8] = test system: HEL embryonic lung fibroblast cells; assay: Cytostatic assay, HEL; assay type: cell-based; conditions: Homo sapiens, Table 3
Summary of the method: as §1

[9] = test system: Sup T1 cells; assay: Cytostatic assay, Sup T1; assay type: cell-based; conditions: Homo sapiens, Table 2, read-out: Cytostatic activity (μM) Sup T 1
Summary of the method: as §1

[10] = test system: MT-4 cells; assay: Cytostatic assay, MT-4; assay type: cell-based; conditions: Homo sapiens, MT4; Table 2
Summary of the method: as §1

[11] = test system: HL60, human leukemia cells; assay: Cytostatic assay, HL-60; assay type: cell-based; conditions: Table 2
Summary of the method: as §1

[12] = test system: FM3A mammary carcinoma cells; assay: Cytostatic assay, FM3A; assay type: cell-based, murine; conditions: Mus musculus, Table 3
Summary of the method: as §1

[13] = test system: HT29 colorectal carcinoma cells; assay: Cytostatic assay, HT29; assay type: cell-based; conditions: Homo sapiens, HT-29; Table 3
Summary of the method: as §1

[14] = test system: DNA synthesis in Raji cells; assay: Antimetabolic activity assay, [CH3-3H]dThd incorporation (DNA synthesis), Raji; assay type: cell-based; conditions: Homo sapiens, incorporation into TCA-insoluble material
Description: [The procedure below names another cell line; the source lists this cell line under the same test.] as §2

[15] = test system: U937, human monocytic cells; assay: Cytostatic assay, U937; assay type: cell-based; conditions: U-937, Table 2
Summary of the method: as §1

[16] = test system: Molt4/C8 cells; assay: Cytostatic assay, Molt4/C8; assay type: cell-based; conditions: Table 2
Summary of the method: as §1

[17] = test system: protein synthesis in CEM cells; assay: Antimetabolic activity assay, [4,5-3H]leucine incorporation (protein synthesis), CEM; assay type: cell-based; conditions: Homo sapiens, CCRF-CEM, incorporation into TCA-insoluble material
Description: as §2

[18] = test system: BAEC aortic endothelial cells; assay: Cytostatic assay, BAEC; assay type: cell-based, bovine; conditions: Bos taurus, Table 3
Summary of the method: as §1

[19] = test system: U87 glioma cells; assay: Cytostatic assay, U87; assay type: cell-based; conditions: Homo sapiens, U-87 MG; Table 3
Summary of the method: as §1

[20] = test system: LNCaP (UZ) prostate cancer cells; assay: Cytostatic assay, LNCaP (UZ); assay type: cell-based; conditions: Homo sapiens, Table 4
Summary of the method: as §1

[21] = test system: MT-2 cells; assay: Cytostatic assay, MT-2; assay type: cell-based; conditions: Homo sapiens, MT2; Table 2
Summary of the method: as §1

[22] = test system: Raji, human B-lymphoma cells; assay: Cytostatic assay, Raji; assay type: cell-based; conditions: Table 2
Summary of the method: as §1

[23] = test system: Huh-7 hepatoma cells; assay: Cytostatic assay, Huh-7; assay type: cell-based; conditions: Homo sapiens, Table 4
Summary of the method: as §1

[24] = test system: C8166 cells; assay: Cytostatic assay, C8166; assay type: cell-based; conditions: Homo sapiens, Table 2
Summary of the method: as §1

[25] = test system: HeLa cervix carcinoma cells; assay: Cytostatic assay, HeLa; assay type: cell-based, human; conditions: Homo sapiens; Table 3; read-out: Cytostatic activity (μM) Hela
Summary of the method: as §1

[26] = test system: MCF-7 mammary carcinoma cells; assay: Cytostatic assay, MCF-7; assay type: cell-based; conditions: Homo sapiens, MCF7; Table 3
Summary of the method: as §1

[27] = test system: broad variety of tumor cell lines; assay: Cytostatic assays, summary over the panel of cell lines (Tables 2-4); assay type: cell-based
Description: as §3

[28] = test system: 22Rv1 (UZ) prostate cancer cells; assay: Cytostatic assay, 22Rv1 (UZ); assay type: cell-based; conditions: Homo sapiens, Table 4
Summary of the method: as §1

[29] = test system: HepG2C3A hepatoma cells; assay: Cytostatic assay, HepG2C3A; assay type: cell-based; conditions: Homo sapiens, HepG2/C3A; Table 4
Summary of the method: as §1

[30] = test system: Caki-1 kidney carcinoma cells; assay: Cytostatic assay, Caki-1; assay type: cell-based; conditions: Homo sapiens, Table 3
Summary of the method: as §1

[31] = test system: DNA synthesis in CEM cells; assay: Antimetabolic activity assay, [CH3-3H]dThd incorporation (DNA synthesis), CEM; assay type: cell-based; conditions: Homo sapiens, CCRF-CEM, incorporation into TCA-insoluble material
Description: as §2

[32] = test system: PC3 (rega) prostate cancer cells; assay: Cytostatic assay, PC3 (rega); assay type: cell-based; conditions: Table 4
Summary of the method: as §1

[33] = test system: Caki-2 kidney carcinoma cells; assay: Cytostatic assay, Caki-2; assay type: cell-based; conditions: Homo sapiens, Table 3
Summary of the method: as §1

[34] = test system: RNA synthesis in CEM cells; assay: Antimetabolic activity assay, [5-3H]uridine incorporation (RNA synthesis), CEM; assay type: cell-based; conditions: Homo sapiens, CCRF-CEM, incorporation into TCA-insoluble material
Description: as §2

[35] = test system: HOS CD4+ osteosarcoma cells; assay: Cytostatic assay, HOS CD4+; assay type: cell-based; conditions: Homo sapiens; Table 3
Description: as §3

[36] = test system: PNT1A (UZ) prostate cells; assay: Cytostatic assay, PNT1A (UZ); assay type: cell-based; conditions: Homo sapiens, Table 4
Summary of the method: as §1

[37] = test system: DU145 (UZ) prostate cancer cells; assay: Cytostatic assay, DU145 (UZ); assay type: cell-based; conditions: Homo sapiens, DU-145; Table 4
Summary of the method: as §1

[38] = test system: PC-3 (UZ) prostate cancer cells; assay: Cytostatic assay, PC-3 (UZ); assay type: cell-based; conditions: Table 4
Summary of the method: as §1

[39] = test system: Daudi, human B-lymphoma cells; assay: Cytostatic assay, Daudi; assay type: cell-based; conditions: Table 2
Description: as §3

[40] = test system: THP-1, human monocytic cells; assay: Cytostatic assay, THP-1; assay type: cell-based; conditions: Table 2
Summary of the method: as §1

[41] = test system: PLC/PRF/5 hepatoma cells; assay: Cytostatic assay, PLC/PRF/5; assay type: cell-based; conditions: Homo sapiens, Table 4
Summary of the method: as §1

[42] = test system: CEM cells; assay: Cytostatic assay, CEM; assay type: cell-based; conditions: Homo sapiens, CCRF-CEM
Summary of the method: as §1

[43] = test system: L1210 cells; assay: Cytostatic assay, L1210; assay type: cell-based; conditions: Mus musculus, Table 2
Summary of the method: as §1

[44] = Table 2, read-out: Cytostatic activity (μM) CEM

IC50 [1]: 43 ± 2.8 µM
IC50 [2]: ≥ 100 µM
IC50 [3]: > 100 µM
IC50 [4]: 37 ± 9.9 µM
IC50 [5]: 5.4 ± 3.3 µM
IC50 [6]: 22 ± 9.2 µM
IC50 [9]: 1.5 ± 0.071 µM
IC50 [11]: 7 ± 8.7 µM
IC50 [12]: 46 ± 6 µM
IC50 [13]: 27 ± 13 µM
IC50 [14]: > 100 µM
IC50 [15]: 43 ± 1.4 µM
IC50 [16]: 0.34 µM
IC50 [17]: 1.6 ± 1.1 µM
IC50 [18]: 23 ± 0.71 µM
IC50 [19]: 38 ± 1.4 µM
IC50 [20]: 0.34 ± 0.05 µM
IC50 [21]: 1.7 ± 0.14 µM
IC50 [22]: 39 ± 2.8 µM
IC50 [23]: 1.6 ± 0.14 µM
IC50 [24]: 3.4 ± 0.071 µM
IC50 [25]: 39 µM
IC50 [26]: 36 ± 5.7 µM
IC50 ([27]; Homo sapiens, HuT78, range for the seven compounds, MT-4 and HUT-78 cells, read-out: IC50 range, cytostatic activity against MT-4 and HUT-78 cells): 8.5 to 60 µM
IC50 ([27]; range for the seven compounds against the 5 tumor cell lines, read-out: IC50 range, cytostatic activity against CEM, Molt4/C8, Sup T1, MT-2 and C8166 cells): 0.22 to 3.4 µM
IC50 [28]: 15 ± 7.9 µM
IC50 [29]: 6.7 ± 0.35 µM
IC50 [30]: 4.6 ± 2.1 µM
IC50 [31]: 11 ± 4 µM
IC50 [32]: 0.67 ± 0.14 µM
IC50 [33]: 66 ± 37 µM
IC50 [34]: 3 ± 0.1 µM
IC50 [35]: 25 ± 5.7 µM
IC50 [36]: 37 ± 9.9 µM
IC50 [37]: 8.4 ± 1.6 µM
IC50 [38]: 1.1 ± 0.49 µM
IC50 [39]: 43 ± 2.1 µM
IC50 [40]: 23 ± 3.5 µM
IC50 [41]: 24 ± 2.1 µM
IC50 [42, 44]: 1.9 ± 0.99 µM
SMILES: CCOC(=O)c1cc(CCc2ccc(OC)cc2)sc1N [TR532, 2-Amino-5-[2-(4-methoxy-phenyl)-ethyl]-thiophene-3-carboxylic acid ethyl ester]
IC50 [7]: 41 ± 0.71 µM
IC50 [8]: 20 ± 8.5 µM
IC50 [10]: 8.5 ± 0.92 µM

IC50 [1]: 36 ± 1.4 µM
IC50 [2]: ≥ 100 µM
IC50 [3]: 82 ± 26 µM
IC50 [5]: 79 ± 2.8 µM
IC50 [6]: 117 ± 21 µM
IC50 [9]: 86 ± 7.1 µM
IC50 [11]: 62 ± 9.9 µM
IC50 [12]: 49 ± 6 µM
IC50 [13]: 93 ± 11 µM
IC50 [14]: ≥ 100 µM
IC50 [15]: 115 ± 19 µM
IC50 [16]: 18 ± 2.1 µM
IC50 [17]: 6.2 ± 7.6 µM
IC50 [18]: 74 ± 26 µM
IC50 [19]: 90 ± 14 µM
IC50 [20]: 2.3 ± 0.071 µM
IC50 [21]: 52 ± 5.7 µM
IC50 [22]: > 100 µM
IC50 [23]: > 100 µM
IC50 [24]: 102 ± 16 µM
IC50 [25]: 39 ± 4 µM
IC50 [26]: 81 ± 4.9 µM
IC50 [28]: 16 ± 5.5 µM
IC50 [43]: 44 ± 3 µM
IC50 [29]: > 100 µM
IC50 [30]: 83 ± 36 µM
IC50 [31]: 15 ± 3 µM
IC50 [32]: 13 ± 9.6 µM
IC50 [33]: 159 ± 19 µM
IC50 [34]: 12 ± 5 µM
IC50 [36]: 42 ± 5.7 µM
IC50 [37]: 41 ± 24 µM
IC50 [38]: 20 ± 3.5 µM
IC50 [40]: 102 ± 2.8 µM
IC50 [41]: > 100 µM
IC50 ([42]; Table 1a, read-out: IC50 μM (CEM)): 40 µM
IC50 [42, 44]: 40 ± 1 µM
SMILES: CCOC(=O)c1cc(-c2ccc(OC)cc2)sc1N [TR525, 2-Amino-5-(4-methoxy-phenyl)-thiophene-3-carboxylic acid ethyl ester]
IC50 [7]: > 100 µM
IC50 [8]: 43 ± 9.9 µM
IC50 [10]: > 100 µM
